Values quoted from earlier work, collected in patent US11504416B2, “Formulation with cannabinoids” (PAW POWER, INC., priority 2018, dated 2022).

What was measured:
[1] = intra-articular injection, high molecular weight (>5×10^6 Da)

| Compound | function in subjects with osteoarthritis or rheumatoid arthritis [1] | gastrointestinal absorption (administered orally) | time to peak levels in the bloodstream (after oral ingestion) [h] | tissue distribution of ingested glucosamine (oral ingestion) |
| --- | --- | --- | --- | --- |
| hyaluronic acid | improves function |  |  |  |
| N[C@H]1C(O)O[C@H](CO)[C@@H](O)[C@@H]1O (stereo partly shown) [Glucosamine] |  | readily absorbed | ≤ 8 | localizes to cartilage and joint tissues |
